Assay results reported in patent publication US6350913B1, “3-alkoxybenzylamine derivatives and their use as medicines for treating schizophrenia” (Pierre Fabre Medicament, priority 1998, dated 2002).
Counter-ions that a name gives are not always drawn.

What was measured:
[1] = target: D2 receptors (Homo sapiens, UniProt P14416); assay: Affinity for D2-type receptors by displacement of (3H) YM-09151-2; format: binding; conditions: mean of at least 3 experiments, read-out: D2 pKi (converted)
Method: 1- Measurement of the affinity of the compounds of the invention for the D2 receptors. The affinity of the compounds of the invention for the D2-type receptors was determined by measuring the displacement of (^3H) YM-09151-2 (NET-1004 70-87 Ci/mmol), according to the method described in Naunyn-Schimiedeberg's Arch. Pharmacol. Methods, 1985, 329, 333. The pKi values (-log Ki) are given in the form of a mean±SEM of at least 3 experiments.

[2] = Cataleptogenic power (propensity to induce extrapyramidal side effects); conditions: rat, in vivo, ip; rats, i.p. administration; read-out: Catalepsy ED50
[3] = test system: behavioral patterns induced by methylphenidate; assay: Inhibition of behavioral patterns induced by methylphenidate (in vivo antidopaminergic activity); conditions: Rattus norvegicus, ip, read-out: Normalization ED50

Chain of D2 receptors (P14416 whole entry): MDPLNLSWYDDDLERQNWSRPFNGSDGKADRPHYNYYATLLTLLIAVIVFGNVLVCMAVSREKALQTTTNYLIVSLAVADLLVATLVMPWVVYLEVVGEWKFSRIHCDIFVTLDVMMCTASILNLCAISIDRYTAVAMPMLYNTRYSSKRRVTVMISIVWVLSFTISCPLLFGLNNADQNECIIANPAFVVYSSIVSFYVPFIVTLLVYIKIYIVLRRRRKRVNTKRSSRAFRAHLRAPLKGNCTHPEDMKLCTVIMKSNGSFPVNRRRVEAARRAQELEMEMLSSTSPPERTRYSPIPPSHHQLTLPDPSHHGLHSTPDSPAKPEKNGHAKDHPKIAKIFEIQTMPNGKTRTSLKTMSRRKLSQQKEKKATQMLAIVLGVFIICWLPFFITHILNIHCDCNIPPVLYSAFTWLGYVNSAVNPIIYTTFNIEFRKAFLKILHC

Row | SMILES | melting point [°C] | Ki [1] [nM] | ED50 [2] [mg/kg] | ED50 [3] [mg/kg]
1 | CC(C)Oc1ccccc1OCCNCc1cccc(OC2CC3C=CC2C3)c1 (stereo not drawn) (as salt: oxalate) [Compound 1.4] | 177 |  |  | 
2 | CC(C)Oc1ccccc1OCCNCc1cc(OC2CCCC2)ccc1F (as salt: oxalate) [Compound 1.12] | 159 |  |  | 
3 | CC(C)Oc1ccccc1OCCNCc1cccc(OC2CC3C=CC2C3)c1 (stereo not drawn) [Compound 1.4] |  | 2.75 | > 40 | 5
4 | CC(C)Oc1ccccc1OCCNCc1cc(OC2CCCC2)ccc1F [Compound 1.12] |  | 0.741 | > 40 | 1.25
5 | Cc1nc2n(c(=O)c1CCN1CCC(c3noc4cc(F)ccc34)CC1)CCCC2 [Risperidone, reference compound] |  |  |  | 2.9
